According to article PMC5418947 (The Open Medicinal Chemistry Journal, 2017):
Read-outs that look alike come from different tables or passages of the source.

Experiments:
[1] = biological target: TcAChE (from electric eel) (Electrophorus electricus, UniProt O42275); experiment: Cholinesterase assay; type: biochemical
[2] = biological target: eqBuChE (from equine serum) (Equus caballus, UniProt P81908); experiment: biochemical; type: biochemical
[3] = DPPH free radical scavenging; type: physicochemical; conditions: read-out: DPPH IC50; 0.1 mM DPPH in methanol, 30 min, room temperature, 517 nm

TcAChE (from electric eel), sequence (O42275 24-633): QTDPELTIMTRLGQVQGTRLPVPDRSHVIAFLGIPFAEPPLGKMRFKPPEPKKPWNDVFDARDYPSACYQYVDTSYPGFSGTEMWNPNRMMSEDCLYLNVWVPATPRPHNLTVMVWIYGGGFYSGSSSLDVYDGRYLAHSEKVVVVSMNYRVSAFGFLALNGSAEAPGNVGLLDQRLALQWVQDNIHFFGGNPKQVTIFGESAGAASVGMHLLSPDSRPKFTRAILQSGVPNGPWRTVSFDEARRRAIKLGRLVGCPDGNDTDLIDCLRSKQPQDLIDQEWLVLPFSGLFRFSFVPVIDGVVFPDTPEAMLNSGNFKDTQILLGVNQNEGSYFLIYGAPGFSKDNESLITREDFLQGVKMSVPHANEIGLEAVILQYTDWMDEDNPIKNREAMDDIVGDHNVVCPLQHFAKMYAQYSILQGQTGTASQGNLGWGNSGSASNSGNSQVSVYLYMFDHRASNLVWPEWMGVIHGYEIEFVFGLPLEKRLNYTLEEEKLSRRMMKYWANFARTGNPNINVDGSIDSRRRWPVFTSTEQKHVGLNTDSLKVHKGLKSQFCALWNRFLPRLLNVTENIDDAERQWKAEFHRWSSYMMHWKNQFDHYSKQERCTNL
eqBuChE (from equine serum), sequence (P81908 whole entry): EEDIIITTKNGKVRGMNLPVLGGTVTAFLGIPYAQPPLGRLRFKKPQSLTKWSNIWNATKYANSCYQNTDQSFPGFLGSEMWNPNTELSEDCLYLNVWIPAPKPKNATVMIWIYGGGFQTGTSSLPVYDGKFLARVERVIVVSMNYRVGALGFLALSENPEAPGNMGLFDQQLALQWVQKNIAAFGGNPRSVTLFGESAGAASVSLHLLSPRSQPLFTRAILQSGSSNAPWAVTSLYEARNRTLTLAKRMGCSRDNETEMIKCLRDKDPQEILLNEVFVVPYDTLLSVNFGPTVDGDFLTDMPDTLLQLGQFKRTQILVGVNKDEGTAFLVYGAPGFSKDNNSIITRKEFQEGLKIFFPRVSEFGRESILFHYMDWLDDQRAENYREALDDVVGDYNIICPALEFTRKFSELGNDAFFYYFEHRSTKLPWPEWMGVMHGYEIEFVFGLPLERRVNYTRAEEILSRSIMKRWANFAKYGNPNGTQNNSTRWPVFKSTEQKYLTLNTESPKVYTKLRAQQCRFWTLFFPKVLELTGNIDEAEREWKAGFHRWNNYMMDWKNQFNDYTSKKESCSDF

Structure (SMILES): Cc1c(C)c2c(c(C)c1O)CCC(C)(C(=O)NCCCNc1c3c(nc4ccccc14)CCCC3)O2 (stereo not drawn) [Compound 8b, 6-Hydroxy-2,5,7,8-tetramethyl-N-{3-[(1,2,3,4-tetrahydroacridin-9-yl)amino]propyl}-3,4-dihydro-2H-1-benzopyran-2-carboxamide]
- IC50 [1]: 1530 nM
- IC50 [2]: 12.6 nM
- BuChE selectivity index (SI) = IC50(TcAChE)/IC50(eqBuChE) ([2]; ratio of IC50 values): 121.62
- IC50 [3]: 11.5 µM

Structure (SMILES): c1ccc2c(NCCCCCCCN3CCc4c([nH]c5ccccc45)C3)c3c(nc2c1)CCCC3 [Compound 14, N-(7-(3,4-dihydro-1H-pyrido[3,4-b]indol-2(9H)-yl)heptyl)-1,2,3,4-tetrahydroacridin-9-amine]
- IC50 [2]: 3.16 nM
- BuChE selectivity index (SI) = IC50(TcAChE)/IC50(eqBuChE) ([2]; ratio of IC50 values): 5.49
- BuChE inhibitor activity, fold higher than tacrine ([2]; relative to tacrine): more than 3 fold
- IC50 [3]: 129 µM

Structure (SMILES): Cc1c(C)c2c(c(C)c1O)CCC(C)(C(=O)NCCNc1c3c(nc4ccccc14)CCCC3)O2 (stereo not drawn) [Compound 8a, 6-Hydroxy-2,5,7,8-tetramethyl-N-{2-[(1,2,3,4-tetrahydroacridin-9-yl)amino]ethyl}-3,4-dihydro-2H-1-benzopyran-2-carboxamide]
- IC50 [1]: 1530 nM
- BuChE selectivity index (SI) = IC50(TcAChE)/IC50(eqBuChE) [2]: 11.87
- IC50 [2]: 129 nM
- IC50 [3]: 46.2 µM

Structure (SMILES): Cc1c(C)c2c(c(C)c1O)CCC(C)(C(=O)NCCCCCCNc1c3c(nc4ccccc14)CCCC3)O2 (stereo not drawn) [Compound 8d, 6-Hydroxy-2,5,7,8-tetramethyl-N-{6-[(1,2,3,4-tetrahydroacridin-9-yl)amino]hexyl}-3,4-dihydro-2H-1-benzopyran-2-carboxamide]
- IC50 [1]: 49.3 nM
- BuChE inhibitor activity, fold higher than tacrine [2]: more than 3 fold
- BuChE selectivity index (SI) = IC50(TcAChE)/IC50(eqBuChE) [2]: 10.40
- IC50 [2]: 4.74 nM
- IC50 [3]: 12.7 µM

Structure (SMILES): Cc1c(C)c2c(c(C)c1O)CCC(C)(C(=O)NCCCCNc1c3c(nc4ccccc14)CCCC3)O2 (stereo not drawn) [Compound 8c, 6-Hydroxy-2,5,7,8-tetramethyl-N-{4-[(1,2,3,4-tetrahydroacridin-9-yl)amino]butyl}-3,4-dihydro-2H-1-benzopyran-2-carboxamide]
- IC50 [1]: 2200 nM
- BuChE selectivity index (SI) = IC50(TcAChE)/IC50(eqBuChE) [2]: 196.07
- IC50 [2]: 11.2 nM
- IC50 [3]: 14.4 µM

Structure (SMILES): c1ccc2c3c([nH]c2c1)CN(CCN1CCc2c([nH]c4ccccc24)C1)CC3 [Compound 16, 1,2-Bis(3,4-dihydro-1H-pyrido[3,4-b]indol-2(9H)-yl)ethane]
- IC50 [1]: > 100000 nM
- AChE inhibitory activity (in words) ([1]; Ellman's method): no inhibitory activity
- IC50 [2]: 1700 nM
- BuChE selectivity index (SI) = IC50(TcAChE)/IC50(eqBuChE) ([2]; ratio of IC50 values): >58.88
- IC50 [3]: 126 µM

Structure (SMILES): Cc1c(C)c2c(c(C)c1O)CCC(C)(C(=O)O)O2 (stereo not drawn) [Trolox, reference compound]
- IC50 [3]: 17.6 µM
